Results from patent publication US5637619A, “Antitumor 2-aminocarbonyl-1, 2-bis(methylsulfonyl)-1-(substituted)hydrazines” (Yale University, priority 1995, dated 1997).
Values joined by “and” are separate entries in the source; they are usually repeats but may differ in a detail not shown here. Equal values may be shown once. “Also recorded” adds a separate entry of the source.

Legend:
L1210 leukemia = L1210 leukemia survival time in mice (ip implanted); type: in vivo, mice (CD2F1); conditions: for %T/C (average survival time treated/control × 100): cures not included
Description: (§1) Leukemia L1210 cells were obtained from the Frederick Cancer Research Facility, Division of Cancer Treatment Tumor Repository of the National Cancer Institute, and were maintained by serial passage in tissue culture. Every 8 weeks, tumor cells were injected intraperitoneally into five donor CD2 F1 mice 8- to 10- weeks of age and were allowed to grow for 7 days. The peritoneal fluid was withdrawn and the suspension was centrifuged for 5 min at 1600 g. The supernatant was decanted and 10^5 cells/mL were seeded into 10 mL of RPMI 1640 medium supplemented with 10% fetal bovine serum and 1% L-glutamine, and once again maintained in culture. To assay for antineoplastic activity, 0.1 mL of the cell suspension containing 10^5 L1210 leukemia cells was injected ip into each recipient mouse. Test compounds were administered over a wide range of dosage levels, beginning 24 h after tumor implantation, and continued once daily for 6 consecutive days. All drugs were administered ip as a solution in 100% dimethylsulfoxide (DMSO), in a volume not exceeding 0.025 mL. […] Mice were weighed during the course of the experiments, and the percentage change in body weight from onset to termination of therapy was used as an indication of drug toxicity. Determination of the sensitivity of neoplasms to these agents was based upon the prolongation of survival time afforded by the drug treatments.
(§2) ^a Administered ip once daily for six consecutive days, beginning 24 hours after tumor implantation, with 5-10 mice being used per group. ^b Average percent change in body weight from onset to termination of therapy. ^c % T/C=average survival time of treated/control mice×100; cures (>60-day survivors) are listed separately and are not included in this calculation.

[1] = Body weight change / toxicity in L1210-bearing mice; type: in vivo, mice (CD2F1); conditions: for Av. Wt. Change %: L1210-bearing mice
Description: as §1, §2

[2] = system: M5076 reticulum cell sarcoma; assay: M5076 reticulum cell sarcoma, sc implanted; type: in vivo, C57BL/6 mice; conditions: 48 mg/kg/injection, q2d × 5, iv, 100% DMSO
Description: The M5076 reticulum cell sarcoma was passaged biweekly by sc transfer of tumor fragments into C57BL/6 mice, and the M109 lung carcinoma was similarly passaged in BALB/c mice. The LX-1 human lung carcinoma was passaged sc every two to three weeks in BALB/c-background athymic (nu/nu) mice. For use in these systems, compound III was dissolved in: (a) 100% DMSO and administered by iv injection in a fixed volume of 10 microliters; or (b) DMSO diluted with saline to a final concentration of 10% DMSO and administered iv in a volume of 0.01 milliliter/g of body weight. […] Mitomycin C and cyclophosphamide were dissolved and administered in saline. BCNU and MeCCNU were dissolved in ethanol and diluted 1:9 (v/v) with water prior to administration.
(§3) Five mice per group were employed in experiments with the B16F10 melanoma, and 8 mice per group with the M5076 sarcoma, the M109 carcinoma and the LX-1 carcinoma. A minimum of two dose levels per compound were included in each evaluation and drug therapy was initiated 24 h after tumor implantation for the M5076 sarcoma and M109 carcinoma. In the LX-1 experiment, tumor bearing mice were selected and sorted into treatment and control groups on day 6 post-tumor implant such that all tumor weights ranged from 50-100 mg and median tumor weights per group were reasonably similar. Therapeutic results are presented in terms of: (a) increases in lifespan reflected by the relative median survival time (MST) of treated versus control groups (i.e., %T/C values), and by long-term survivors, and (b) primary tumor growth inhibition (i.e., T-C values) determined by calculating the relative median times for treated (T) and control untreated (C) mice to grow tumors of a 0.5 g size for the LX-1 carcinoma or a 1 g size for the murine neoplasms. Tumor weights were interchangeable with tumor size on the basis of 1 mm^3 =1 mg. […] The activity criterion for tumor inhibition was a delay in tumor growth consistent with one log10 cell kill (LCK). The absolute T-C value needed to attain this level of efficacy varied from experiment to experiment and depended upon the tumor volume doubling time of the control mice in each study. Treated mice dying prior to day 10 in the ip M109 experiment, or dying before their tumors achieved 0.5 g for the LX-1 carcinoma or 1 g in size for all other sc tumor models, were considered to have died from drug toxicity. Groups of mice with more than one death due to drug toxicity were not used in the evaluation of antitumor efficacy. Statistical evaluations of data were performed using Gehan's generalized Wilcoxan test (Gehan, Biometrika, 1965, 52, 203-233).
Compound III was also evaluated against the M5076 reticulum cell sarcoma implanted sc. When administered iv at a level of 48 mg/kg per injection in 100% DMSO every other day for five days, compound III cured 6 out of 8 mice and consequently, no median time (T-C value) to reach 1 gram size tumors was expressed for this group. Tumor growth in mice receiving only 100% DMSO was indistinguishable from that of untreated control animals. 1-(2-Chloroethyl)-3-(4-methylcyclohexyl)-1-nitrosourea (MeCCNU) and BCNU were included in this experiment for comparison. The former achieved a maximum %T/C of 128 and a delay in tumor growth of 33.5 days at 16 mg/kg per injection administered iv every fourth day for three total injections, while BCNU, administered iv on the same treatment schedule, produced a %T/C in excess of 157, with 2 out of 8 cures, and a T-C of >62 days (data not shown).

B16F10 melanoma = assay: B16F10 melanoma, tumor growth delay in mice; type: in vivo, C57BL/6 mice; conditions: 100% DMSO
Description: B16F10 melanoma cells were grown in vitro as monolayers in minimum essential medium with Hank's salts supplemented with 10% fetal bovine serum and 1% 200 mM L-glutamine solution. Solid tumors were produced in C57BL/6 female mice 12- to 14-weeks of age by the intradermal injection in the right flank of each mouse of 0.1 mL of a cell suspension containing 10^6 B16F10 cells/mL from freshly trypsinized cultures. After 10-12 days, animals bearing approximately 100 mm^3 tumors were treated ip with compound III or IV dissolved in 100% DMSO for 6 consecutive days, and tumor volumes were measured on alternate days until reaching 1000 mm^3.
as §3
In addition, both compounds III and IV were evaluated in 100% DMSO against the B16F10 melanoma implanted intradermally (id) in mice (Table III). In an initial experiment, compound IV produced a T-C of 15.5 days at a daily dosage level of 20 mg/kg administered once daily for six consecutive days beginning on day 10 post-implant. In the same experiment, using the same treatment schedule, a growth delay of 11 days was obtained with compound III. […] Thus, the aminocarbonyl component in this class of agents influences the magnitude of the antitumor effects obtained against the B16F10 melanoma.

With `CS(=O)(=O)N(CCCl)N(C(=O)NCCCl)S(C)(=O)=O` [Compound III, 1,2-bis(methylsulfonyl)-1-(2-chloroethyl)-2-(2-chloroethyl)aminocarbonylhydrazine] the “% 60 Day Survivors (cures)” value (L1210 leukemia; 10 mg/kg ip once daily × 6) was 100%, the “% 60 Day Survivors (cures)” value (L1210 leukemia; 15 mg/kg ip once daily × 6) was 80% and the “%T/C (average survival time treated/control × 100)” value (L1210 leukemia; 15 mg/kg ip once daily × 6) was 216%. For the same compound, the “% 60 Day Survivors (cures)” value (L1210 leukemia; 20 mg/kg ip once daily × 6) was 80%, the “%T/C (average survival time treated/control × 100)” value (L1210 leukemia; 20 mg/kg ip once daily × 6) was 239% and the “antileukemic activity / therapeutic potential (in words)” value (L1210 leukemia; qualitative, L1210 leukemia in mice) was “One of the most active and potent compounds in the series; also recorded: much better therapeutic potential than the amino acid ester derivatives”. For the same compound, the “Av. Wt. Change %” value ([1]; 10 mg/kg ip once daily × 6) was -4.7%, the “Av. Wt. Change %” value ([1]; 15 mg/kg ip once daily × 6) was -4.0% and the “Av. Wt. Change %” value ([1]; 20 mg/kg ip once daily × 6) was -10.4%. For the same compound, the “loss in body weight” value ([1]; 20 mg/kg × 6) was 10.4%, the “toxicity (in words)” value ([1]; 20 mg/kg × 6) was “somewhat toxic” and the “%T/C (median survival time)” value [2] was > 157%. The Cures/Total [2] was 6/8 and 6 out of 8, the “T-C, growth delay” value (B16F10 melanoma; experiment a, 20 mg/kg/injection, qd × 6 from day 10, ip, 20 mg/kg) was 11 days and 11.0 days and the T-C (B16F10 melanoma; experiment b, 20 mg/kg/injection, qd × 6 from day 12, ip) was 5.5 days. The “T-C, growth delay” value (B16F10 melanoma; experiment b, 30 mg/kg/injection, qd × 6 from day 12, ip) was 13.5 days.
